Laboratory results published in patent US20250026762A1, “FUSED PYRAZOLE UREA ANALOGS AS GLUCOSYLCERAMIDE SYNTHASE INHIBITORS” (Merck Sharp & Dohme LLC, priority 2021, published 2025).

Molecular target: glucosylceramide synthase (GCS) enzyme in Golgi preparations from human A375 malignant melanoma skin cells (Homo sapiens (Human), UniProt Q16739)
Experiment: UDP-Glo glucosylceramide synthase biochemical assay
Details: 1.5 μg crude golgi preparation; C6 ceramide and UDP-glucose at 2×Km; 20 h incubation at room temperature; luminescence
Source text: UDP-Glo™ Glucosylceramide Synthase Biochemical Assay
A UDP-Glo™ glucosylceramide synthase biochemical assay was utilized to evaluate the effect of test compounds on the activity of endogenous levels of GCS enzyme contained within Golgi preparations isolated from human A375 malignant melanoma skin cells. The UDP-Glo™ glucosylceramide synthase assay uses UDP-Glucose as a nucleotide-glycosyl donor and ceramide as substrate acceptor molecules. In the reaction, glucosylceramide synthase (GCS) transfers glucose from UDP-Glucose to ceramide. Glucosylceramide and UDP are released as products.
Using Promega's UDP-Glo™ Glycosyltransferase assay kit (Promega Corporation, Madison, WI, USA (Promega)), GCS activity was indirectly measured by detecting the amount of UDP produced. An aliquot of GCS enzyme (1.5 μg crude golgi preparation, total protein) and titrated test compound were aliquoted to each well and incubated for 30 minutes at room temperature. Substrate mixture was prepared by mixing C6 ceramide (Avanti Polar Lipids, Alabaster, AL USA (Avanti)) (micelles prepared at 0.6 mM in 0.6 mM DOPC) and UDP-glucose (20 μM; Promega), at concentrations equivalent to 2×Km, in assay buffer (25 mM HEPES (pH 7.5), 50 mM KCl, 5 mM MgCl2). An equivalent volume of substrate mixture was then added to each well. Following a 20 h incubation at room temperature to allow for GCS turnover of substrate, an equal volume of UDP detection reagent (Promega) was added to each well and incubated for an additional 75 minutes at room temperature to simultaneously convert the accumulated UDP product into ATP and generate light in a luciferase reaction. The generated light was detected using a luminometer. […] luminescence values (RLUs) were normalized to mean “min” and “max” effects, as determined on each plate. “Min” was defined as the mean of the values of the wells treated with vehicle (DMSO) and which represent 0% inhibition; “max” was defined as the mean of the values of the wells treated with a reference inhibitor and which represent the 100% effect. Values for % Emax and EC50 were determined by best-fitting the normalized data to a curve in Activity Base along a four-parameter logistic nonlinear regression (4PL) model (based on the Levenberg-Marquardt algorithm and defined by the equation below): […]
where: n is 4PMin (bottom of the curve); m is 4PMax (top of the curve); i is IP (inflection point of curve); andp is slope. See Levenberg, K., “A Method for the Solution of Certain Problems in Least Squares”, Quart. Appl. Math. 2, (1944), pp 164-168 and Marquardt, D., “An Algorithm for Least Squares Estimation on Nonlinear Parameters”, SIAM J. Appl. Math. 11, (1963) pp 431-441.

Sequence of glucosylceramide synthase (GCS) enzyme in Golgi preparations from human A375 malignant melanoma skin cells (Q16739 whole entry): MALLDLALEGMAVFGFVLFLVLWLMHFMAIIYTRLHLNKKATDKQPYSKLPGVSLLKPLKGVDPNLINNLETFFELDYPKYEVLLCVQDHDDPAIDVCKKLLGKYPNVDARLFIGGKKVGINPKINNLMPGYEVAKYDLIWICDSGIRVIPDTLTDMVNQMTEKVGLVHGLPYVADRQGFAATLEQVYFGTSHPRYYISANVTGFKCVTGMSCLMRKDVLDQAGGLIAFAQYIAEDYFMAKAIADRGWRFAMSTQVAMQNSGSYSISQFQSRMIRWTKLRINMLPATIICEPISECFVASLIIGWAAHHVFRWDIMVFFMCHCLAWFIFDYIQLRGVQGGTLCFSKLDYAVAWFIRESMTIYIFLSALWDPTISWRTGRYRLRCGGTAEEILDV

Row | SMILES | EC50 [nM]
1 | O=C(N1CCN2CCC1CC2)n1nc(C23CCCC2C3)c2c1CCC2 (single isomer, unassigned) [Compound 9, R or S-(3-(bicyclo[3.1.0]hexan-1-yl)-5,6-dihydrocyclopenta[c]pyrazol-1(4H)-yl)(1,4-diazabicyclo[3.2.2]nonan-4-yl)methanone] | 2.4
2 | O=C(N1CCN2CCC1CC2)n1nc(-c2ccc(F)cc2)c2c1C1CC1CC2 (single isomer, unassigned) [Compound 10] | 0.3
3 | O=C(N1CCN2CCC1CC2)n1nc(-c2ccc(F)cc2)c2c1CC1CC21 (single isomer, unassigned) [Compound 15, (R,R) or (S,S)--(1,4-diazabicyclo[3.2.2]nonan-4-yl)(3-(4-fluorophenyl)-3b,4,4a,5-tetrahydro-1H-cyclopropa[3,4]cyclopenta[1,2-c]pyrazol-1-yl)methanone] | 0.1
4 | CC1CCc2c(-c3ccc(F)cc3)nn(C(=O)N3CCN4CCC3CC4)c21 (single isomer, unassigned) [Compound 16, R or S-(1,4-diazabicyclo[3.2.2]nonan-4-yl)(3-(4-fluorophenyl)-6-methyl-5,6-dihydrocyclopenta[c]pyrazol-1(4H)-yl)methanone] | 0.4
5 | O=C(N1CCN2CCC1CC2)n1nc(-c2ccc(F)cc2)c2c1COCC2 [Compound 1, 1,4-diazabicyclo[3.2.2]nonan-4-yl(3-(4-fluorophenyl)-4,5-dihydropyrano[3,4-c]pyrazol-1(7H)-yl)methanone] | 5.1
6 | O=C(N1CCN2CCC1CC2)n1nc(-c2ccc(OC(F)F)c(Cl)c2)c2c1COCC2 [Compound 2, 1,4-diazabicyclo[3.2.2]nonan-4-yl(3-(3-chloro-4-(difluoromethoxy)phenyl)-4,5-dihydropyrano[3,4-c]pyrazol-1(7H)-yl)methanone] | 2.9
7 | COc1ccc(-c2nn(C(=O)N3CCN4CCC3CC4)c3c2CCOC3)cc1Cl [Compound 3, 1,4-diazabicyclo[3.2.2]nonan-4-yl(3-(3-chloro-4-methoxyphenyl)-4,5-dihydropyrano[3,4-c]pyrazol-1(7H)-yl)methanone] | 1.4
8 | COc1ccc(-c2nn(C(=O)N3CCN4CCC3CC4)c3c2CCC3)cc1 [Compound 4, 1,4-diazabicyclo[3.2.2]nonan-4-yl-[3-(4-methoxyphenyl)-5,6-dihydro-4H-cyclopenta[c]pyrazol-1-yl]methanone] | 0.2
9 | O=C(N1CCN2CCC1CC2)n1nc(-c2ccc(OC(F)F)cc2)c2c1CCC2 [Compound 5, 1,4-diazabicyclo[3.2.2]nonan-4-yl-[3-[4-(difluoromethoxy)phenyl]-5,6-dihydro-4H-cyclopenta[c]pyrazol-1-yl]methanone] | 0.3
10 | COc1ncc(-c2nn(C(=O)N3CCN4CCC3CC4)c3c2CCC3)cc1Cl [Compound 6, [3-(5-chloro-6-methoxy-3-pyridyl)-5,6-dihydro-4H-cyclopenta[c]pyrazol-1-yl]-(1,4-diazabicyclo[3.2.2]nonan-4-yl)methanone] | 0.4
11 | O=C(N1CCN2CCC1CC2)n1nc(-c2ccc(F)c(Cl)c2)c2c1COCC2 [Compound 7, [3-(3-chloro-4-fluoro-phenyl)-5,7-dihydro-4H-pyrano[3,4-c]pyrazol-1-yl]-(1,4-diazabicyclo[3.2.2]nonan-4-yl)methanone] | 1
12 | COc1ncc(-c2nn(C(=O)N3CCN4CCC3CC4)c3c2C[C@@H]2C[C@H]32)cc1Cl [Compound 8, (1,4-diazabicyclo[3.2.2]nonan-4-yl)((4aS,5aS)-3-(5-chloro-6-methoxypyridin-3-yl)-4,4a,5,5a-tetrahydro-1H-cyclopropa[4,5]cyclopenta[1,2-c]pyrazol-1-yl)methanone] | 0.1
13 | O=C(N1CCN2CCC1CC2)n1nc(-c2ccc(F)cc2)c2c1[C@H]1C[C@H]1C2 [Compound 11, (1,4-diazabicyclo[3.2.2]nonan-4-yl)((4aS,5aS)-3-(4-fluorophenyl)-4,4a,5,5a-tetrahydro-1H-cyclopropa[4,5]cyclopenta[1,2-c]pyrazol-1-yl)methanone] | 0.1
14 | O=C(N1CCN2CCC1CC2)n1nc(-c2ccc(F)cc2)c2c1CCC2 [Compound 12, 1,4-diazabicyclo[3.2.2]nonan-4-yl-[3-(4-fluorophenyl)-5,6-dihydro-4H-cyclopenta[c]pyrazol-1-yl]methanone] | 0.3
15 | O=C(N1CCN2CCC1CC2)n1nc(-c2ccc(F)cc2)c2c1CCOC2 [Compound 13, 1,4-diazabicyclo[3.2.2]nonan-4-yl-[3-(4-fluorophenyl)-6,7-dihydro-4H-pyrano[4,3-c]pyrazol-1-yl]methanone] | 4.1
16 | O=C(N1CCN2CCC1CC2)n1nc(-c2ccc(F)cc2)c2c1C1CCC2C1 [Compound 14, (R,R) and (S,S)-(1,4-diazabicyclo[3.2.2]nonan-4-yl)(3-(4-fluorophenyl)-4,5,6,7-tetrahydro-1H-4,7-methanoindazol-1-yl)methanone] | 1.2
17 | CC1(C)COc2c(-c3ccc(F)cc3)nn(C(=O)N3CCN4CCC3CC4)c21 [Compound 17, (1,4-diazabicyclo[3.2.2]nonan-4-yl)(3-(4-fluorophenyl)-6,6-dimethyl-5,6-dihydro-1H-furo[3,2-c]pyrazol-1-yl)methanone] | 10.1
18 | CC1(C)Cc2c(c(-c3ccc(F)cc3)nn2C(=O)N2CCN3CCC2CC3)CO1 [Compound 18, (1,4-diazabicyclo[3.2.2]nonan-4-yl)(3-(4-fluorophenyl)-6,6-dimethyl-6,7-dihydropyrano[4,3-c]pyrazol-1(4H)-yl)methanone] | 9.8
19 | O=C(N1CCN2CCC1CC2)n1nc(-c2ccc(F)cc2)c2c1CCC(F)(F)C2 [Compound 19, (1,4-diazabicyclo[3.2.2]nonan-4-yl)(5,5-difluoro-3-(4-fluorophenyl)-4,5,6,7-tetrahydro-1H-indazol-1-yl)methanone] | 8.2
20 | O=C(N1CCN2CCC1CC2)n1nc(-c2ccc(F)cc2)c2c1CC(F)(F)C2 [Compound 20, (1,4-diazabicyclo[3.2.2]nonan-4-yl)(5,5-difluoro-3-(4-fluorophenyl)-5,6-dihydrocyclopenta[c]pyrazol-1(4H)-yl)methanone] | 4.7
21 | O=C(N1CCN2CCC1CC2)n1nc(-c2ccc(F)cc2)c2c1CC(O)C2 (stereo not drawn) [Compound 21, R and S-(1,4-diazabicyclo[3.2.2]nonan-4-yl)(3-(4-fluorophenyl)-5-hydroxy-5,6-dihydrocyclopenta[c]pyrazol-1(4H)-yl)methanone] | 19.3
22 | Cn1ncc2ccc(-c3nn(C(=O)N4CCN5CCC4CC5)c4c3CCC4)cc21 [Compound 22, 1,4-diazabicyclo[3.2.2]nonan-4-yl-[3-(1-methylindazol-6-yl)-5,6-dihydro-4H-cyclopenta[c]pyrazol-1-yl]methanone] | 6.3
23 | O=C(N1CCN2CCC1CC2)n1nc(-c2ccc(Cl)cn2)c2c1COCC2 [Compound 23, (1,4-diazabicyclo[3.2.2]nonan-4-yl)(3-(5-chloropyridin-2-yl)-4,7-dihydropyrano[3,4-c]pyrazol-1(5H)-yl)methanone] | 3.7
24 | CC1(C)CCCN(c2nn(C(=O)N3CCN4CCC3CC4)c3c2CCC3)C1 [Compound 24, (1,4-diazabicyclo[3.2.2]nonan-4-yl)(3-(3,3-dimethylpiperidin-1-yl)-5,6-dihydrocyclopenta[c]pyrazol-1(4H)-yl)methanone] | 7.8
25 | O=C(N1CCN2CCC1CC2)n1nc(-n2nc(C(F)(F)F)ccc2=O)c2c1CCOC2 [Compound 25, 2-(1-(1,4-diazabicyclo[3.2.2]nonane-4-carbonyl)-1,4,6,7-tetrahydropyrano[4,3-c]pyrazol-3-yl)-6-(trifluoromethyl)pyridazin-3(2H)-one] | 27
26 | O=C(N1CCN2CCC1CC2)n1nc(OC2CCCC2)c2c1CCC2 [Compound 26, (1,4-diazabicyclo[3.2.2]nonan-4-yl)(3-(cyclopentyloxy)-5,6-dihydrocyclopenta[c]pyrazol-1(4H)-yl)methanone] | 23.3
27 | O=C(N1CCN2CCC1CC2)n1nc(-c2cccc(Cl)c2F)c2c1COCC2 [Compound 27] | 1.6
28 | Cc1ccccc1-c1nn(C(=O)N2CCN3CCC2CC3)c2c1CCOC2 [Compound 28, (1,4-diazabicyclo[3.2.2]nonan-4-yl)(3-(o-tolyl)-4,7-dihydropyrano[3,4-c]pyrazol-1(5H)-yl)methanone] | 6.6
